What is called bioavailability is the share of a dose that reaches the circulation, judged against a reference dose that is usually intravenous. Usually logD stands for lipophilicity at a set pH, counting ionised and neutral species. A word on the fraction unbound: it is free concentration divided by total concentration. By clearance is commonly meant the volume of plasma or blood freed of the substance per unit of time. Broadly, the Papp A→B is the apparent permeability from the apical to the basolateral side of a cell layer. The IC50 is the point on the concentration scale where inhibition reaches its midpoint.

A short description of one data set: in vivo. Conditions: rat.
Data set [1] in a line: Octanol-buffer partition coefficient, log D of the compound at pH 7.4 after 30 mins by shake-flask method. The data set is classed as physicochemical.
A short description of data set [2]: Clearance in rat hepatocytes measured per 10^6 cells. The class given is ADME, cell-based, Hepatocyte. To be noted: read-out: CLH.
Data set [3] in a line: Fraction unbound in rat plasma by equilibrium dialysis technique. The data set is classed as ADME, cell-free. For orientation: In equilibrium dialysis free small molecules cross a membrane that holds back macromolecules.
Data set [4] in a line: Clearance in rat. The class given is ADME, organism-based. To be noted: in vivo.
Data set [5] can be described thus: Apparent permeability from apical to basolateral side in human Caco2 cells. The data set is classed as ADME, cell-based. To be noted: Caco-2.
Data set [6] is described as follows: Drug metabolism in human hepatocytes assessed as ratio of glucuronidated to oxidized compound level by LC-MS/MS analysis. The data set is classed as ADME, cell-based, Hepatocyte.
Data set [7] in a line: Drug metabolism in dog hepatocytes assessed as ratio of glucuronidated to oxidized compound level by LC-MS/MS analysis. The class given is ADME, cell-based, Canis lupus familiaris, Hepatocyte.
Data set [8] is described as follows: Inhibition of N-terminal 6-His-tagged dog full length 11beta-HSD1 assessed as conversion of cortisone to cortisol after 25 mins by HTRF assay. Also noted: species or system Canis lupus familiaris.
Data set [9] in a line: Drug metabolism in rat hepatocytes assessed as ratio of glucuronidated to oxidized compound level by LC-MS/MS analysis. The class given is ADME, cell-based, Hepatocyte.
Data set [10] in a line: Drug excretion in bile duct cannulated rat urine assessed as ratio of glucuronidated to oxidized compound level by HPLC analysis. The class given is ADME. Conditions: in vivo.
Data set [11] can be described thus: Drug excretion in bile duct cannulated rat bile assessed as ratio of glucuronidated to oxidized compound level by HPLC analysis. The class given is ADME, tissue-based. To be noted: in vivo.
Data set [12] can be described thus: Inhibition of N-terminal 6-His-tagged cynomolgus monkey full length 11beta-HSD1 assessed as conversion of cortisone to cortisol after 25 mins by HTRF assay. Also noted: species or system Macaca fascicularis. For orientation: Time-resolved FRET reads energy transfer from a long-lived donor to a nearby acceptor.
Data set [13] is described as follows: Drug excretion in bile duct cannulated rat urine assessed as compound remaining by HPLC analysis. The data set is classed as ADME, tissue-based. Conditions: read-out: Stability.

Molecule `O=C(N[C@H]1C2CC3CC1C[C@](OC(F)F)(C3)C2)c1ccc(N2C[C@@H]3[C@H](C2)[C@H]3C(=O)O)nc1SC1CCCC1` displayed a bioavailability in the data set “in vivo” of 94%. In data set [1], the log distribution coefficient (logD) at 0.5 h came out at 3.4. Further, the hepatocyte CLint in data set [2] was 7 µL/min/1e6 cells. In addition, the fraction unbound in data set [3] turned out to be 0.005. This molecule also came in with a clearance in data set [4] of 9 mL/min/kg.

For the molecule `CCCSc1nc(N2CCCC(C(C)(C)C(=O)O)C2)ccc1C(=O)NC1CCCCC1` (configuration not stated), the bioavailability in the data set “in vivo” came out at 84%. This molecule yielded a logD at 0.5 h in data set [1] of 3.3. The hepatocyte CLint in data set [2] amounted to 22 µL/min/1e6 cells. Also, the unbound share (fraction unbound) in [3] stood at 0.004. The molecule further came in with a clearance in data set [4] of 9 mL/min/kg.

Molecule `O=C(O)[C@H]1[C@@H]2CN(c3ccc(C(=O)N4CCC(c5cccnc5)C4)c(SC4CCCC4)n3)C[C@@H]21` (some centres not stated) yielded a bioavailability in the data set “in vivo” of 3%. The Papp A→B in [5] turned out to be 2 ×10⁻⁶ cm/s. Besides, the log distribution coefficient (logD) at 0.5 h in data set [1] was determined as 1.2. In data set [2], the hepatocyte CLint was determined as 20 µL/min/1e6 cells. Besides, in [3], the fraction unbound turned out to be 0.034. The molecule also returned a clearance in data set [4] of 18 mL/min/kg.

As to `CCCSc1nc(N2CCC[C@@H](CC(=O)NS(C)(=O)=O)C2)ccc1C(=O)NC1CCCCC1`, the bioavailability in the data set “in vivo” stood at 5%. In [1], this molecule yielded a logD at 0.5 h of 1.6. Moreover, in [2], the hepatocyte CLint came to 38 µL/min/1e6 cells. In [3], this molecule showed a fraction unbound of 0.017. The clearance in [4] was 35 mL/min/kg.

In turn, `CCCSc1nc(N2CC[C@H](CC(=O)O)C2)ccc1C(=O)NC1CCCCC1` gave a bioavailability in the data set “in vivo” of 96%. The molecule also yielded a logD at 0.5 h in data set [1] of 1.7. In data set [2], the hepatocyte CLint is less than 2 µL/min/1e6 cells. The free fraction (fraction unbound) in data set [3] came out at 0.01. In data set [4], the clearance turned out to be 2 mL/min/kg.

As for `CCCSc1nc(N2CCC[C@@H](Cc3nnn[nH]3)C2)ccc1C(=O)NC1CCCCC1`, in the data set “in vivo”, the bioavailability was found to be 21%. The molecule further had a logD at 0.5 h in data set [1] of 2.4. In addition, the hepatocyte CLint in [2] is 9 µL/min/1e6 cells. Moreover, the fraction unbound in [3] was determined as 0.006. The molecule further returned a clearance in data set [4] of 31 mL/min/kg.

For `CCCSc1nc(N2CCC[C@@H](CC(=O)O)C2)ccc1C(=O)NC1CCCCC1` [AZD-4017], the bioavailability in the data set “in vivo” amounted to 66%. In addition, the Ratio was 6 in data set [6]; 4.1 in [7]; 2.1 in data set [9]; 2.4 in data set [10]; 7.5 in data set [11]. In addition, the IC50 in data set [8] was found to be 3770 nM; in data set [12], 29 nM. The hepatocyte CLint in data set [2] was less than 2 µL/min/1e6 cells. The unbound share (fraction unbound) in data set [3] came out at 0.018. Moreover, the dose excreted in [13] was 4%.

Molecule `CCCSc1nc(N2CCCC(C3(C(=O)O)CC3)C2)ccc1C(=O)NC1CCCCC1` (configuration not stated) displayed a bioavailability in the data set “in vivo” of 71%. In [1], this molecule gave a logD at 0.5 h of 3.5. In data set [2], the hepatocyte CLint worked out at 15 µL/min/1e6 cells. The molecule also gave a free fraction (fraction unbound) in data set [3] of 0.002. The same molecule returned a clearance in [4] of 8 mL/min/kg.

`O=C(N[C@H]1C2CC3CC1C[C@](O)(C3)C2)c1ccc(N2C[C@@H]3[C@H](C2)[C@H]3C(=O)O)nc1SC1CCCC1`: the bioavailability in “in vivo” was determined as 57%. The molecule also showed a logD at 0.5 h in [1] of 1.5. Besides, the hepatocyte CLint in data set [2] came to 4 µL/min/1e6 cells. In data set [3], the free fraction (fraction unbound) turned out to be 0.04. Also, the clearance in data set [4] was 43 mL/min/kg.

In turn, `CCCSc1nc(N2C[C@@H]3[C@H](C2)[C@H]3C(=O)O)ccc1C(=O)NC1CCCCC1` had a bioavailability in the data set “in vivo” of 80%. In addition, in [1], the logD at 0.5 h came out at 1.8. The hepatocyte CLint in [2] was less than 2 µL/min/1e6 cells. Further, in data set [3], the free fraction (fraction unbound) was determined as 0.025. In addition, the clearance in data set [4] was found to be 2 mL/min/kg.

Consider `CCCSc1nc(N2C[C@@H]3[C@H](C2)[C@H]3C(=O)O)ccc1C(=O)N[C@H]1C2CC3CC1C[C@](O)(C3)C2`, for which, in “in vivo”, the bioavailability is 48%. In addition, the logD at 0.5 h in data set [1] is 0.8. Also, in data set [2], the hepatocyte CLint is less than 2 µL/min/1e6 cells. In data set [3], the fraction unbound came to 0.108. In addition, the clearance in [4] came out at 42 mL/min/kg.

For the molecule `CCCSc1nc(N2CCC(C(=O)O)C2)ccc1C(=O)NC1CCCCC1` (configuration not stated), the bioavailability in “in vivo” amounted to 52%. Further, in [1], the logD at 0.5 h was found to be 1.1. In [2], the hepatocyte CLint came to 3 µL/min/1e6 cells. Moreover, the free fraction (fraction unbound) in [3] was found to be 0.012. In addition, in [4], the clearance is 3 mL/min/kg.

Values taken from ChEMBL document CHEMBL3217743, “Reduction of acyl glucuronidation in a series of acidic 11-hydroxysteroid dehydrogenase type 1 (11-HSD1) inhibitors: the discovery of AZD6925” (Medchemcomm, 2012).
